Measurements published in PMC11843585, “A drug-resistant β-lactamase variant changes the conformation of its active-site proton shuttle to alter substrate specificity and inhibitor potency” (The Journal of Biological Chemistry, 2025).
“And” between values parts separate entries of the source, which are not always exact repeats. Identical values can stand only once. “Also recorded” adds a separate entry of the source.

Columns and labels:
[1] = tested on: CO/N=C(\C(=O)N[C@@H]1C(=O)N2C(C(=O)O)=C(COC(C)=O)CS[C@H]12)c1csc(N)n1; assay: Steady-state kinetics of β-lactam hydrolysis, WT enzyme; type: biochemical; details: other: WT CTX-M-14, 25 °C, pH 7.0
Procedure: (§1) Michaelis–Menten steady-state kinetic parameters of CTX-M-14 β-lactamases were determined on various β-lactam substrates. Wavelength and extinction coefficients used for detection were as follows: ampicillin, 235 nm, Δε = 900 M^−1 cm^−1; cephalothin, 262 nm, Δε = 7,660 M^−1 cm^−1; cefotaxime, 264 nm, Δε = 7,250 M^−1 cm^−1; nitrocefin, 482 nm, Δε = 15,000 M^−1 cm^−1; cefpodoxime, 235 nm, Δε = 1,023 M^−1 cm^−1; ceftriaxone, 241 nm, Δε = 2,046 M^−1 cm^−1. Enzymatic reactions were performed at 25 °C in buffer containing 50 mM sodium phosphate (pH 7.0) and 1 μg/ml BSA. Substrate hydrolysis was monitored by Beckman Coulter spectrophotometer model DU 800 (Beckman Coulter, Brea, CA, USA). Initial hydrolysis velocities of substrate were plotted as a function of concentrations and fitted into a Michaelis–Menten equation using GraphPad Prism 5 (GraphPad Software, San Diego, CA, USA) to obtain Km and kcat values. The kcat/Km values for the enzymes where kcat and Km could not be determined independently were estimated using the equation, ν = (kcat/Km)[E][S], where [S] ≪ Km ([54]).

[2] = tested on: CC1(C)S[C@@H]2[C@H](NC(=O)[C@H](N)c3ccccc3)C(=O)N2[C@H]1C(=O)O; assay: as above; type: biochemical; details: other: WT CTX-M-14, 25 °C, pH 7.0
Procedure: as §1

[3] = target: T1, CTX-M-14 K234R β-lactamase (Escherichia coli, UniProt Q9L5C7, K237R); assay: Steady-state kinetics of β-lactam hydrolysis, K234R enzyme; type: biochemical; details: for Km / kcat: 25 °C, pH 7.0
T1 construct: His6 (TEV-cleavable) (N, cleaved yes); made in house; host or cells: E. coli BL21(DE3), pET28a-CTX-M-14 with K234R
Procedure: as §1

WT CTX-M-14 β-lactamase [4] = target: T2, WT CTX-M-14 β-lactamase (Escherichia coli, UniProt Q9L5C7); assay: Steady-state kinetics of β-lactam hydrolysis, WT enzyme; type: biochemical
T2 construct: His6 (TEV-cleavable) (N, cleaved yes); made in house; host or cells: E. coli BL21(DE3), plasmid pET28a-CTX-M-14
Procedure: as §1

PSE-4 β-lactamase = tested on: PSE-4 β-lactamase; parameters: method as in PMID 11148033, PMID 9756758; details: WT PSE-4; cited from earlier work
[5] = target: T3, CTX-M-14 S130A/K234R β-lactamase (Escherichia coli, UniProt Q9L5C7, K237R/S133A); assay: Steady-state kinetics of β-lactam hydrolysis, S130A/K234R enzyme; type: biochemical
T3 construct: His6 (TEV-cleavable) (N, cleaved yes); made in house; host or cells: E. coli BL21(DE3)
Procedure: as §1

WT CTX-M-14 β-lactamase [6] = target: T2, WT CTX-M-14 β-lactamase; assay: Single-turnover stopped-flow kinetics, WT enzyme; type: biochemical
Procedure: (§2) Single-turnover kinetics experiments were used to determine the acylation rate for the CTX-M-14 WT and K234R enzymes. Kinetic measurements were carried out at 25 °C using a using a KinTek stopped-flow instrument. Protein concentrations used in this experiment exceed the substrate concentrations. To prepare sample injection, 1 ml of increasing concentrations of CTX-M-14 proteins and 1 ml of 2.5–5 μM cefotaxime were loaded into two separate drive syringes. 5 μM cefotaxime was used for single-turnover experiments with WT CTX-M-14, whereas 2.5 μM cefotaxime was used in experiments with the K234R enzyme. Data collection times were adjusted empirically. Absorbance at 264 nm was monitored after samples in two syringes were mixed. For each selected time period, 1,000 data points were collected, and at least three kinetic traces were obtained to ensure high-quality data. Kinetic data with various protein concentrations were fitted to a single-exponential function, At=A^(−kt)+C , to determine kobs, which was then used to determine k2 by fitting kobs as a function of enzyme concentration to a hyperbola, as has been reported previously for serine β-lactamases and serine proteases ([33], [34], [35]). The deacylation rate constant, k3, was calculated from the experimental values determined for kcat and k2, using the equation, kcat = k2 × k3/(k2 + k3). Solving the equation for kcat in terms of k3 gives k3 = (k2 × kcat)/(kcat − k2). The error in the calculated value of k3 was determined by propagating the errors in k2 and kcat through the equation by adding the absolute errors for the sum (difference) in the denominator to obtain the absolute and the percentage error in kcat − k2. The percentage error of the numerator, (kcat × k2), was calculated by adding the percentage error for kcat and k2, and the final percentage and absolute errors on k3 were then obtained by adding the percentage error of the numerator and denominator to yield the percentage error in k3.

[7] = target: T1, CTX-M-14 K234R β-lactamase; assay: Single-turnover stopped-flow kinetics, K234R enzyme; type: biochemical
Procedure: as §2, with “Kinetic data with various protein concentrations were fitted to a single-exponential function, At=A^(−kt)+C , to determine kobs, which was then used to determine k2 by fitting kobs as a function of enzyme concentration to a hyperbola, as has been reported previously for serine β-lactamases and serine proteases ([33], [34], [35]).” left out, “Solving the equation for kcat in terms of k3 gives k3 = (k2 × kcat)/(kcat − k2).” left out, “The percentage error of the numerator, (kcat × k2), was calculated by adding the percentage error for kcat and k2, and the final percentage and absolute errors on k3 were then obtained by adding the percentage error of the numerator and denominator to yield the percentage error in k3.” left out

[8] = target: T4, CTX-M-14 S130A β-lactamase (Escherichia coli, UniProt Q9L5C7, S133A); assay: Steady-state kinetics of β-lactam hydrolysis, S130A enzyme; type: biochemical; details: for fold decrease in kcat / fold increase in Km: S130A compared with WT; for Km / kcat: S130A
T4 construct: His6 (TEV-cleavable) (N, cleaved yes); made in house; host or cells: E. coli BL21(DE3)
Procedure: as §1

CTX-M β-lactamases = details: CTX-M versus TEM-1; cited from earlier work
[9] = target: T1, CTX-M-14 K234R β-lactamase; assay: Clavulanic acid inhibition (Ki, Morrison fit), K234R enzyme; type: biochemical; details: ampicillin as indicator substrate, 20 min preincubation
Procedure: (§3) The Ki values for clavulanic acid inhibition of CTX-M-14 WT and variants were determined by mixing the enzymes with increasing concentrations of clavulanic acid in buffer containing 50 mM sodium phosphate (pH 7.0) and 1 μg/ml BSA and incubating at room temperature for 20 min. Enzyme activity was evaluated by monitoring the initial velocity of hydrolysis of 100 μM ampicillin using Beckman Coulter spectrophotometer model DU 800. The percentage activity was calculated by dividing the initial hydrolysis velocity for ampicillin in the presence of clavulanic acid by the velocity in the absence of clavulanic acid and plotted as a function of clavulanic acid concentration. The Ki values were obtained by fitting the data into Morrison equation using GraphPad Prism 5 ([55]).

[10] = target: T4, CTX-M-14 S130A β-lactamase; assay: Clavulanic acid inhibition (Ki, Morrison fit), S130A enzyme; type: biochemical; details: ampicillin as indicator substrate, 20 min preincubation
Procedure: as §3

[11] = target: T3, CTX-M-14 S130A/K234R β-lactamase; assay: Clavulanic acid inhibition (Ki, Morrison fit), S130A/K234R enzyme; type: biochemical
Procedure: as §3

WT CTX-M-14 β-lactamase [12] = target: T2, WT CTX-M-14 β-lactamase; assay: Clavulanic acid inhibition (Ki, Morrison fit), WT enzyme; type: biochemical; details: ampicillin (100 μM) as indicator substrate, 20 min preincubation
Procedure: as §3

TEM-1 β-lactamase K234T = tested on: TEM-1 β-lactamase K234T; parameters: method as in PMID 1910040; details: TEM-1 K234T versus TEM-1; cited from earlier work
TEM-1 S130G β-lactamase = tested on: TEM-1 S130G β-lactamase; parameters: method as in PMID 15981999; details: cited from earlier work

## WT CTX-M-14 β-lactamase (Escherichia coli)
[1]
  Km: 66 ± 3 µM
  kcat: 100 ± 1 s⁻¹
  kcat/Km: 1.5e+06 ± 100000 M⁻¹ s⁻¹
[2]
  Km: 120 ± 10 µM
  kcat: 67 ± 3 s⁻¹
  kcat/Km: 560000 ± 20000 M⁻¹ s⁻¹

## CC(=O)OCC1=C(C(=O)O)N2C(=O)[C@@H](NC(=O)Cc3cccs3)[C@H]2SC1 [cephalothin]
[3]; K234R compared with WT
  fold decrease in Km: 20 fold
  fold decrease in kcat: 100 fold
  fold decrease in kcat/Km: 6 fold
WT CTX-M-14 β-lactamase [4]
  kcat, fold higher than for cefotaxime: ~7 fold
  kcat/Km, fold higher than for cefotaxime: ~3 fold

## CO/N=C(\C(=O)N[C@@H]1C(=O)N2C(C(=O)O)=C(CSc3nc(=O)c(=O)[nH]n3C)CS[C@H]12)c1csc(N)n1 [ceftriaxone]
[3]; K234R compared with WT
  fold decrease in Km: 2 fold
  fold decrease in kcat: 400 fold
  fold decrease in kcat/Km: 170 fold

## CO/N=C(\C(=O)N[C@@H]1C(=O)N2C(C(=O)O)=C(COC(C)=O)CS[C@H]12)c1csc(N)n1 [Cefotaxime, cefotaxime]
PSE-4 β-lactamase
  kcat, fold lower than for ampicillin hydrolysis: ~2,000 fold
[5]; S130A/K234R compared with K234R
  fold reduction in kcat: 400 fold
[5]; S130A/K234R compared with S130A
  fold reduction in kcat: 200 fold
[5]; S130A/K234R, 25 °C, pH 7.0
  Km: 120 ± 17 µM
  kcat: 0.0005 ± 0.0001 s⁻¹
WT CTX-M-14 β-lactamase [6]; calculated from k2 and kcat
  k3 (deacylation rate): 190 s^−1 and 190 ± 35 ^b s^−1
WT CTX-M-14 β-lactamase [6]; fit of kobs from single turnover, read-out: KD (Ks, dissociation constant)
  Kd: 74 ± 12 µM
WT CTX-M-14 β-lactamase [6]; single turnover, 5 μM cefotaxime, 25 °C
  k2 (acylation rate): 210 s⁻¹ and 210 ± 12 s⁻¹
[7]; fit of kobs from single turnover
  Kd: 42 ± 8 µM
[7]; single turnover, 2.5 μM cefotaxime, 25 °C
  k2 (acylation rate): 0.14 s⁻¹ and 0.14 ± 0.01 s⁻¹
[3]; K234R compared with WT
  fold decrease in Km: 6 fold
  fold decrease in kcat: 500 fold
  fold decrease in kcat/Km: 80 fold
[3]; K234R
  Km: 11 ± 4 µM
  kcat: 0.2 ± 0.01 s⁻¹
[3]; K234R, listed as cefotaxime
  kcat: 0.2 s⁻¹
[3]; K234R, inferred from kcat
  k3 (deacylation rate), lower limit based on kcat: ≥ 0.2 s⁻¹
[8]
  fold decrease in kcat: 1,000 fold
  fold increase in Km: 4 fold
[8]; 25 °C, pH 7.0
  Km: 260 ± 13 µM
  kcat: 0.1 ± 0.003 s⁻¹
CTX-M β-lactamases
  hydrolysis, fold faster than TEM-1: ~1,000 fold

## O=C(O)[C@H]1/C(=C/CO)O[C@@H]2CC(=O)N21 [Clav acid, Clavulanic acid]
[9]
  Ki: 0.39 ± 0.02 µM
[10]
  Ki: 30 µM and 31 µM
[11]; S130A/K234R compared with WT
  Ki, fold above WT: 3,500 fold
[11]; S130A/K234R, ampicillin as indicator substrate, 20 min preincubation
  Ki: 270 ± 20 µM
WT CTX-M-14 β-lactamase [12]
  Ki: 0.08 ± 0.001 µM

## CC1(C)S[C@@H]2[C@H](NC(=O)Cc3ccccc3)C(=O)N2[C@H]1C(=O)O [benzylpenicillin]
TEM-1 β-lactamase K234T
  fold increase in Km: 50 fold
  fold reduction in kcat: ~50 fold

## CO/N=C(\C(=O)N[C@@H]1C(=O)N2C(C(=O)O)=CCS[C@H]12)c1csc(N)n1 [ceftizoxime]
[3]; K234R compared with WT
  fold decrease in Km: 8 fold
  fold decrease in kcat: 320 fold
  fold decrease in kcat/Km: 40 fold
WT CTX-M-14 β-lactamase [4]
  Km, fold higher than for cefotaxime: 45 fold
  kcat, fold higher than for cefotaxime: 2 fold
  kcat/Km, fold lower than for cefotaxime: 20 fold

## CC1(C)S[C@@H]2[C@H](NC(=O)[C@H](N)c3ccccc3)C(=O)N2[C@H]1C(=O)O [Ampicillin, ampicillin]
[5]; S130A/K234R, too high to measure
  Km: > 30000 µM
[3]; K234R compared with WT
  change in kcat/Km (catalytic efficiency), in words: unchanged; also recorded: only modestly changed
  fold increase in Km: 9 fold
  fold increase in kcat: 5 fold
[3]; K234R compared with WT, inferred from kcat
  fold increase in acylation rate: at least 5 fold
[3]; K234R
  Km: 1050 µM
  kcat: 330 ± 33 s⁻¹
[3]; K234R, listed as ampicillin
  kcat: 330 s⁻¹
[3]; K234R, inferred from kcat
  k2 (acylation rate), lower limit based on kcat: ≥ 330 s⁻¹
  k3 (deacylation rate), lower limit based on kcat: ≥ 330 s⁻¹
TEM-1 S130G β-lactamase
  fold reduction in hydrolysis: 10 fold
[8]
  Km: 30000 µM
  fold decrease in kcat: 2 fold
  fold increase in Km: 260 fold
[8]; 25 °C, pH 7.0
  Km: 30700 µM
  kcat: 30 ± 2 s⁻¹

## COCC1=C(C(=O)O)N2C(=O)[C@@H](NC(=O)/C(=N\OC)c3csc(N)n3)[C@H]2SC1 [cefpodoxime]
[3]; K234R compared with WT
  fold decrease in Km: 9 fold
  fold decrease in kcat: 430 fold
  fold decrease in kcat/Km: 50 fold
